Test results: patent US20030050283A1, “Composition for the treatment and/or prevention of macular degeneration, method for its manufacture, and its use for treating the eye” (priority 2001, published 2003)
Like-named read-outs stand apart in the source and are kept apart here.

Experiments:
[1] = molecular target: T1, solubilized cytochrome c oxidase (COX) (Rattus norvegicus, UniProt P00406+P05503+P05505); assay: Activity of solubilized cytochrome c oxidase by oxygen consumption (Clarke electrode); type: biochemical; settings: for IC50: read-out: IC50 (μM) in relation to COX
T1 construct: Cytochrome c oxidase was purified from rat liver mitochondria of female Wistar rats; from tissue; host or cells: rat liver mitochondria (female Wistar rats)
Description: Cytochrome c oxidase was purified from rat liver mitochondria of female Wistar rats as described by Frei et al. (Frei, B., Winterhalter, K. H., and Richter, C. (1985) J. Biol. Chem. 260, 7394-7401). The homogenization medium contained 210 mM mannitol, 70 mM saccharose, 10 mM tris-HCl (pH 7.4), 0.1 mM EDTA, and 0.5 mg/mL BSA. The heart mitochondria were purified using a similar method, a polytron homogenizer being used. The cytochrome c oxidase was purified according to the method described by Adez and Cascarano (Adez, I. Z., and Cascarano, J. (1977) J. Bioenerg. Biomemb. 9, 237-253). Cytochrome c oxidase solubilized using Triton X-100 was reconstituted in variously composed phospholipid vesicles of differing dimensions, a modified cholate dialysis method being used. (Niggli, V., Siegel, E., and Carafoli, E. (1982) J. Biol. Chem. 257, 2350-2356). 1 mL of a phospholipid suspension (10 mg/mL in 50 mM KCl, 10 mM HEPES-KOH (pH 7.0), 0.1 mM K^+-EDTA; buffer A) was solubilized in 0.2 mL of a 400 mM cholate solution. The purified cytochrome c oxidase (40 μg) was added to 0.4 mL of the cholate-phospholipid mixture. After an hour on ice, the sample was put into dialysis tubes and dialyzed in the cold against 1 L of buffer A (24 hours), three buffer replacements being performed. Cytochrome c oxidase from Paracoccus denitrificans was graciously provided by Dr. Bernd Ludwig, Biology Center of the University of Frankfurt am Main, Germany.
The cytochrome c oxidase activity was determined by establishing the oxygen consumption. For this purpose, a Clarke electrode was used at 25° C. (Yellow Spring Instruments, Yellow Spring, Ohio), the measurement being performed under continuous stirring. Solubilized cytochrome c oxidase was suspended in 40 mM K^+-phosphate, 0.005 mM EDTA (pH 7.0), 0.7% Tween 20 containing 0.02 mM cytochrome c as a substrate and a mixture of ascorbate und tetramethyl-p-phenylenediamine (TMPD) (10 mM/1 mM). Reconstituted cytochrome c oxidase was measured with ascorbate/TPMD (10 mM/0.2 mM) in a medium containing 100 mM KCl, 0.01 M HEPES-KOH (pH 7.0) und 0.1 mM EDTA.
The radiation with light was performed using a 70 watt lamp which was attached at 10 cm height over the electrode. The oxidation of lipids using peroxynitrite was achieved by suspending 20 mg DPG in 1 mL of 40 mM K^+-phosphate and 0.05 mM EDTA (pH 7.0) and mixing with 0.94 μmol peroxynitrite (original solution 94 mM in 0.1 N NaOH). Malondialdehyde was measured as an index for the lipid oxidation as already described (Klein, S. D., Walt, H., and Richter, C. (1997) Arch. Biochem. Biophys., 348, 313-319).
The activity of the COX could be easily measured by registering the oxygen consumption of the enzyme in the presence of ascorbate and TPMD (tetramethyl-p-phenylene diamine) as an electron source to reduce cytochrome c.
The experiment was performed in darkness (line a) and/or under the incidence of light (line b). 5 μg of catalase from beef liver with 500 μM of H2O2 was added at the positions marked with arrows. […] Two separate measurements are illustrated (lines a and b). At the positions marked by dashed arrows, 300 μg/mL of cardiolipin was added at t=210 seconds and t=950 seconds. At the position of the solid arrow, 5 μg of catalase from beef liver with 500 μM of H2O2 was added.
The oxygen consumption of solubilized COX (2 μg/mL) was measured in the presence of various substances using a Clarke electrode (see materials and methods). […] TPP^+=tetraphenyl phosphonium ion; MPP^+=methylphenyl pyridinium ion.
The oxygen consumption of solubilized COX (2 μg/mL) was measured in the presence of various substances using a Clarke electrode (see materials and methods).

MCF-7 cells = assay: A2E-induced apoptosis of MCF-7 cells in culture; type: cell-based
From the text: These advantageous properties predestine the phospholipids according to the present invention for use as a medication for treating pathological conditions of the retina, particular for treating AMD and macular degeneration.

COX = molecular target: T2, COX (Rattus norvegicus, UniProt P00406+P05503+P05505); assay: Binding of [3H]-A2E to COX by co-precipitation; settings: 20 min
T2 construct: Cytochrome c oxidase was purified from rat liver mitochondria of female Wistar rats; from tissue; host or cells: rat liver mitochondria (female Wistar rats)
Description: (§1) The quantity of protein used in each case was approximately 50 pmol. After 20 minutes of incubation in the darkness or under radiation using light, 10% (final concentration) of trichloroacetic acid was added, the precipitate was collected on Millipore filters, and the dissolved filter was examined for radioactivity.
To investigate the hypothesis of whether a molecular interaction occurs between COX and A2E, an acid precipitation of COX was performed after the addition of A2E and radiation with light, and/or after A2E exposure in darkness (see Table IV).
(§2) [^3H]-A2E was added to solubilized COX or other proteins. After 20 minutes of incubation in darkness (setup was wrapped in aluminum foil) or under exposure to light, 10% trichloroacetic acid (final concentration) was added, the precipitate was collected on Millipore filters, and the filters, which were dissolved in solvent, were subsequently examined for radioactivity. CL=cardiolipin (diphosphatidylglycerol, DPC); Cyt. c=cytochrome c; BSA=bovine serum albumin.

COX from rat hearts = molecular target: T3, COX from rat hearts (Rattus norvegicus, UniProt P00406+P05503+P05505); assay: Reconstituted COX from rat hearts, sensitivity to A2E; type: biochemical
T3 construct: The heart mitochondria were purified using a similar method, a polytron homogenizer being used; from tissue; host or cells: rat heart mitochondria
Description: (§3) Cytochrome c oxidase was purified from rat liver mitochondria of female Wistar rats as described by Frei et al. (Frei, B., Winterhalter, K. H., and Richter, C. (1985) J. Biol. Chem. 260, 7394-7401). The homogenization medium contained 210 mM mannitol, 70 mM saccharose, 10 mM tris-HCl (pH 7.4), 0.1 mM EDTA, and 0.5 mg/mL BSA. The heart mitochondria were purified using a similar method, a polytron homogenizer being used. The cytochrome c oxidase was purified according to the method described by Adez and Cascarano (Adez, I. Z., and Cascarano, J. (1977) J. Bioenerg. Biomemb. 9, 237-253). Cytochrome c oxidase solubilized using Triton X-100 was reconstituted in variously composed phospholipid vesicles of differing dimensions, a modified cholate dialysis method being used. (Niggli, V., Siegel, E., and Carafoli, E. (1982) J. Biol. Chem. 257, 2350-2356). […]
(§4) The cytochrome c oxidase activity was determined by establishing the oxygen consumption. […] Reconstituted cytochrome c oxidase was measured with ascorbate/TPMD (10 mM/0.2 mM) in a medium containing 100 mM KCl, 0.01 M HEPES-KOH (pH 7.0) und 0.1 mM EDTA.
(§5) A protective effect by negatively charged phospholipids was also observed when increasing quantities of cardiolipin (see above, a negatively charged phospholipid) were added to vesicles containing PC/PE (see Table III). […]

[2] = molecular target: T4, COX from Paracoccus denitrificans (Paracoccus denitrificans, UniProt P08306+P98002); assay: Reconstituted COX from Paracoccus denitrificans, sensitivity to A2E; type: biochemical
T4 construct: host or cells: gift from Dr. Bernd Ludwig, University of Frankfurt am Main
Description: as §3, §4, §5

Cyt.c = Cyt.c (Homo sapiens, UniProt P99999); assay: Binding of [3H]-A2E to cytochrome c by co-precipitation; settings: 20 min
Description: as §1, §2

BSA = BSA (Bos taurus, UniProt P02769); assay: Binding of [3H]-A2E to BSA by co-precipitation; design: species or system bovine; settings: 20 min
Description: as §1, §2

Myoglobin = molecular target: T5, Myoglobin (Homo sapiens, UniProt P02144); assay: Binding of [3H]-A2E to myoglobin by co-precipitation; settings: 20 min
T5 sequence (P02144 1-154): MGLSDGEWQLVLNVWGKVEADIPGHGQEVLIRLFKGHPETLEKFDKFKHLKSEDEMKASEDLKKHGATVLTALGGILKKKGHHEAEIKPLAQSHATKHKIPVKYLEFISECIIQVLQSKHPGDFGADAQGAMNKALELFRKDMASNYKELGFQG
Description: as §1, §2

[3] = molecular target: T1, solubilized cytochrome c oxidase (COX); assay: Activity of solubilized cytochrome c oxidase by oxygen consumption (Clarke electrode); type: biochemical; settings: read-out: IC50 (A2E concentration for 50% inhibition of COX)
[4] = molecular target: T6, reconstituted cytochrome c oxidase (COX) (Rattus norvegicus, UniProt P00406+P05503+P05505); assay: Activity of cytochrome c oxidase reconstituted in phospholipid vesicles, oxygen consumption in presence of A2E; type: biochemical; settings: phospholipid used in the vesicles
T6 construct: Cytochrome c oxidase was purified from rat liver mitochondria of female Wistar rats; from tissue; host or cells: rat liver mitochondria (female Wistar rats)
T6 sequence (P00406 whole entry, other chains not shown): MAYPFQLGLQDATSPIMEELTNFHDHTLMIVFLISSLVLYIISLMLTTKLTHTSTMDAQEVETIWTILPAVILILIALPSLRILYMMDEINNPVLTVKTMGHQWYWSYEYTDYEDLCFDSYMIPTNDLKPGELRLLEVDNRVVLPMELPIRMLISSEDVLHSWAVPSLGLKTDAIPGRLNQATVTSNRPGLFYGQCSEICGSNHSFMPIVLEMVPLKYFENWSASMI
T6 sequence (P05505 whole entry, other chains not shown): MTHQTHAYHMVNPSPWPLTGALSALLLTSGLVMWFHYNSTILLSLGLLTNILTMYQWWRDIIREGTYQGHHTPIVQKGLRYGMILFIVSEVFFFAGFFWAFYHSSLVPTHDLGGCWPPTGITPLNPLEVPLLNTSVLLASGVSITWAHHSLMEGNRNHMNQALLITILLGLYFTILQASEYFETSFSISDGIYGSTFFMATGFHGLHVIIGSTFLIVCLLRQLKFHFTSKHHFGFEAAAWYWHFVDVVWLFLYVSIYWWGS
Description: Cytochrome c oxidase was purified from rat liver mitochondria of female Wistar rats as described by Frei et al. (Frei, B., Winterhalter, K. H., and Richter, C. (1985) J. Biol. Chem. 260, 7394-7401). The homogenization medium contained 210 mM mannitol, 70 mM saccharose, 10 mM tris-HCl (pH 7.4), 0.1 mM EDTA, and 0.5 mg/mL BSA. […] The cytochrome c oxidase was purified according to the method described by Adez and Cascarano (Adez, I. Z., and Cascarano, J. (1977) J. Bioenerg. Biomemb. 9, 237-253). Cytochrome c oxidase solubilized using Triton X-100 was reconstituted in variously composed phospholipid vesicles of differing dimensions, a modified cholate dialysis method being used. […] 1 mL of a phospholipid suspension (10 mg/mL in 50 mM KCl, 10 mM HEPES-KOH (pH 7.0), 0.1 mM K^+-EDTA; buffer A) was solubilized in 0.2 mL of a 400 mM cholate solution. The purified cytochrome c oxidase (40 μg) was added to 0.4 mL of the cholate-phospholipid mixture. After an hour on ice, the sample was put into dialysis tubes and dialyzed in the cold against 1 L of buffer A (24 hours), three buffer replacements being performed.
The cytochrome c oxidase activity was determined by establishing the oxygen consumption. […] Reconstituted cytochrome c oxidase was measured with ascorbate/TPMD (10 mM/0.2 mM) in a medium containing 100 mM KCl, 0.01 M HEPES-KOH (pH 7.0) und 0.1 mM EDTA. […]

T2 sequence (P00406 whole entry, other chains not shown): as the sequence (P00406 whole entry, other chains not shown) above
T2 sequence (P05505 whole entry, other chains not shown): as the sequence (P05505 whole entry, other chains not shown) above
T1 sequence (P00406 whole entry, other chains not shown): as the sequence (P00406 whole entry, other chains not shown) above
T1 sequence (P05505 whole entry, other chains not shown): as the sequence (P05505 whole entry, other chains not shown) above
Chain of BSA (P02769 25-607): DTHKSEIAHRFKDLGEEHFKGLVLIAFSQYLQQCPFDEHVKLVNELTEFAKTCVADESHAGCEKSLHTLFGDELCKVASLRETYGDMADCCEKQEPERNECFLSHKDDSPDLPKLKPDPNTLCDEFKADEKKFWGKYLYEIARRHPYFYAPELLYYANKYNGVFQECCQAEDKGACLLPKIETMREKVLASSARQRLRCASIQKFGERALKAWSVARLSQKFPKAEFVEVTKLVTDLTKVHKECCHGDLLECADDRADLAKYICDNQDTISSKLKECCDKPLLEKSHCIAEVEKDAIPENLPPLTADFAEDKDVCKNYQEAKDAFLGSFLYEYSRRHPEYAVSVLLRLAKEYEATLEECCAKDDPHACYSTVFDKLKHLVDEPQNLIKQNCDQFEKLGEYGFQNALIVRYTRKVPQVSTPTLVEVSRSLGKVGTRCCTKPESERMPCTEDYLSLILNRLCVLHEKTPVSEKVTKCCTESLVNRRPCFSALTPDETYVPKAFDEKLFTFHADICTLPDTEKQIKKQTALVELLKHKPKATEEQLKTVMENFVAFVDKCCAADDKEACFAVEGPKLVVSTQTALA
Chain of Cyt.c (P99999 whole entry): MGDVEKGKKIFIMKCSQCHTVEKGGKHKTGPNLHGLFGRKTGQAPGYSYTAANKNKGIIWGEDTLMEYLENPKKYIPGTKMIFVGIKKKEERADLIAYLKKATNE
T4 sequence (P08306 30-281): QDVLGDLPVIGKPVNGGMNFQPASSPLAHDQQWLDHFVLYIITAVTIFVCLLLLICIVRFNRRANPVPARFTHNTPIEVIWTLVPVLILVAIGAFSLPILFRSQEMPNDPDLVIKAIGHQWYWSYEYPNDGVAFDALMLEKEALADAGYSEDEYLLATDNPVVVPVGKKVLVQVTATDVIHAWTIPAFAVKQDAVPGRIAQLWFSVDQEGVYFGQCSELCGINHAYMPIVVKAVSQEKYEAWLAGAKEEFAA
T4 sequence (P98002 whole entry): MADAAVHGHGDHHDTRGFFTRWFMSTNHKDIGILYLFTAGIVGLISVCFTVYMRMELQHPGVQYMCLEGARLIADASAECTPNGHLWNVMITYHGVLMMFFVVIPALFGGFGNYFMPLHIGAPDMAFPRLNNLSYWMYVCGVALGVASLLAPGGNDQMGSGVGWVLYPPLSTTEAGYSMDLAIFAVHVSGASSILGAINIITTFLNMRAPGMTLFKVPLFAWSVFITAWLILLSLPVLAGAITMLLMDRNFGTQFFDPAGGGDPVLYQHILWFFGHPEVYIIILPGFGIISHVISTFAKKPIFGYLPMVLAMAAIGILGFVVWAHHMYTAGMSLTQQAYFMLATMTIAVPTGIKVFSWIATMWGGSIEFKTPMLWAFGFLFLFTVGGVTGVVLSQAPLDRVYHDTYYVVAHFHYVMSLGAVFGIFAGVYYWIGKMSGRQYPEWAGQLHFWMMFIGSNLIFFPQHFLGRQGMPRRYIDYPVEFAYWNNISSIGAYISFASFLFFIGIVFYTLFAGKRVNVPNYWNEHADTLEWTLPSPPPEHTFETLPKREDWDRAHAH
T3 sequence (P00406 whole entry, other chains not shown): as the sequence (P00406 whole entry, other chains not shown) above
T3 sequence (P05505 whole entry, other chains not shown): as the sequence (P05505 whole entry, other chains not shown) above

1,3 diphosphatidylglycerol [CL]
Protective effect on COX against A2E after (pre)treatment with peroxynitrite ([1]; CL oxidised with peroxynitrite): loss of the protective properties
Cells survived (MCF-7 cells; 60 μM A2E + CL 500 μg/mL, 5 days): 95%
Protection from A2E-induced apoptosis (MCF-7 cells; CL 500 μg/mL): significant protective effect
Prevention of A2E binding to COX (COX; co-precipitation): almost completely prevented

CC1=C(/C=C/C(C)=C/C=C/C(C)=C/c2cc(/C=C/C=C(C)/C=C/C3=C(C)CCCC3(C)C)cc[n+]2CCO)C(C)(C)CCC1 [A2E, N-retinyl-N-retinylidene ethanolamine]
% COX inhibition ([1]; solubilized COX 2 μg/mL, A2E always 20 μM, CL 200 μg/mL, RR 10 μM, La3+ 200 μM where added): 60%
IC50 ([1]; solubilized COX 2 μg/mL): 7 µM
Sensitivity of enzyme to A2E (COX from rat hearts): sensitive
Sensitivity of enzyme to A2E [2]: sensitive
Cells died off (MCF-7 cells; 60 μM A2E, 5 days): 99%
Induction of apoptosis (MCF-7 cells; A2E 10, 30, 60 μM, 3 and/or 5 days): led to the cells becoming apoptotic
Molecules A2E/molecules protein (COX; COX + CL + Cyt.c, darkness): 0.7 +/− 0.9 (n = 3)
Molecules A2E/molecules protein (COX; COX + CL + Cyt.c, exposure to light): 3.8 +/− 2.3 (n = 4)
Molecules A2E/molecules protein (COX; COX + CL, exposure to light): 2.7 +/− 3.6 (n = 4)
Molecules A2E/molecules protein (Cyt.c; darkness): 0.0 (n = 3)
Molecules A2E/molecules protein (Cyt.c; exposure to light): 0.0 (n = 3)
Molecules A2E/molecules protein (BSA; darkness): 1.6 +/− 0.5 (n = 3)
Molecules A2E/molecules protein (BSA; exposure to light): 1.6 +/− 0.5 (n = 3)
Molecules A2E/molecules protein (Myoglobin; darkness): 0.0 (n = 2)
Molecules A2E/molecules protein (Myoglobin; exposure to light): 0.0 (n = 2)
IC50 ([3]; solubilized COX 1 μg/mL): 3 µM
IC50 ([3]; solubilized COX 4 μg/mL): 20 µM

Cc1cc(N)c2ccccc2[n+]1CCCCCCCCCC[n+]1c(C)cc(N)c2ccccc21 [Dequalinium]
IC50 ([1]; solubilized COX 2 μg/mL): 40 µM

C[n+]1ccc(-c2ccccc2)cc1 [MPP^+, methylphenyl pyridinium ion]
IC50 (μM) in relation to COX ([1]; solubilized COX 2 μg/mL): No inhibition

CC1=C(/C=C/C(C)=C/C=C/C(C)=C/C=O)C(C)(C)CCC1 [Retinal]
IC50 ([1]; solubilized COX 2 μg/mL): 200 µM

CCCCCCCCCCCCCCCCCCN [Stearylamine]
IC50 (μM) in relation to COX ([1]; solubilized COX 2 μg/mL): No inhibition

c1ccc([P+](c2ccccc2)(c2ccccc2)c2ccccc2)cc1 [TPP^+, tetraphenyl phosphonium ion]
IC50 (μM) in relation to COX ([1]; solubilized COX 2 μg/mL): No inhibition

phosphatidylinositol [PI]
Protection of reconstituted COX from inhibition by A2E [4]: pronounced protective effect
